In patent US20130143881A1, “Hydrated Crystalline Forms of N-[3-fluoro-4-(oxy)phenyl]-N'-(4-fluorophenyl)cyclopropane-1,1-dicarboxamide” (Exelixis, Inc., priority 2010, published 2013):

Assay: Gravimetric vapor sorption (GVS) study
Assay type: physicochemical
Details: 25° C. and 90 percent humidity
Experimental: A gravimetric vapor sorption (GVS) study was run using a standard procedure. Samples were run on a dynamic vapor sorption analyzer (Surface Measurement Systems) running DVSCFR software. Sample sizes were typically 10 mg. A moisture adsorption desorption isotherm was performed as outlined below. The standard isotherm experiment, performed at 25° C., is a two-cycle run, starting at 40 percent RH, increasing humidity to 90 percent RH, decreasing humidity to 0 percent RH, increasing humidity again to 90 percent RH, and finally decreasing humidity to 0 percent RH in 10 percent RH intervals.

Structure (SMILES): COc1cc2c(Oc3ccc(NC(=O)C4(C(=O)Nc5ccc(F)cc5)CC4)cc3F)ccnc2cc1OCCCN1CCOCC1 [crystalline Compound (I), N-[3-fluoro-4-({6-(methyloxy)-7-[(3-morpholin-4-ylpropyl)oxy]quinolin-4-yl}oxy)phenyl]-N′-(4-fluorophenyl)cyclopropane-1,1-dicarboxamide crystalline hydrate]
- weight gain (GVS moisture sorption): 2.5%
